Reference: US7205295B2, “Benzoxazin-3-ones and derivatives thereof as therapeutic agents” (Warner-Lambert Company LLC, priority 2002, dated 2007)

molecular target: T1, PI3Kγ (p101/p110γ protein) (Homo sapiens, UniProt P48736); test: PI3Kγ In Vitro Kinase Assay; assay type: biochemical; conditions: purified recombinant p101/p110γ with G protein β1/γ2 subunits; 20 μM ATP, 25 μM PIP2; 20 minutes at room temperature
T1 construct: HA; made in house; host or cells: Spodoptera frugiperda (Sf9) cells, baculovirus co-infection
Summary of the method: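 Sf9-expressed, purified human p101/p110γ (2.7 nM) was activated by Gβ1/γ2 (57.7 nM) and reacted with 20 μM ATP plus [γ-32P]ATP on PIP2 (25 μM)/PE (300 μM) micelles with 10 mM MgCl2 in HEPES buffer. Reactions ran 20 min at room temperature. Filter-captured radiolabeled PIP3 was counted by scintillation.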

T1 sequence (P48736 whole entry, species assumed): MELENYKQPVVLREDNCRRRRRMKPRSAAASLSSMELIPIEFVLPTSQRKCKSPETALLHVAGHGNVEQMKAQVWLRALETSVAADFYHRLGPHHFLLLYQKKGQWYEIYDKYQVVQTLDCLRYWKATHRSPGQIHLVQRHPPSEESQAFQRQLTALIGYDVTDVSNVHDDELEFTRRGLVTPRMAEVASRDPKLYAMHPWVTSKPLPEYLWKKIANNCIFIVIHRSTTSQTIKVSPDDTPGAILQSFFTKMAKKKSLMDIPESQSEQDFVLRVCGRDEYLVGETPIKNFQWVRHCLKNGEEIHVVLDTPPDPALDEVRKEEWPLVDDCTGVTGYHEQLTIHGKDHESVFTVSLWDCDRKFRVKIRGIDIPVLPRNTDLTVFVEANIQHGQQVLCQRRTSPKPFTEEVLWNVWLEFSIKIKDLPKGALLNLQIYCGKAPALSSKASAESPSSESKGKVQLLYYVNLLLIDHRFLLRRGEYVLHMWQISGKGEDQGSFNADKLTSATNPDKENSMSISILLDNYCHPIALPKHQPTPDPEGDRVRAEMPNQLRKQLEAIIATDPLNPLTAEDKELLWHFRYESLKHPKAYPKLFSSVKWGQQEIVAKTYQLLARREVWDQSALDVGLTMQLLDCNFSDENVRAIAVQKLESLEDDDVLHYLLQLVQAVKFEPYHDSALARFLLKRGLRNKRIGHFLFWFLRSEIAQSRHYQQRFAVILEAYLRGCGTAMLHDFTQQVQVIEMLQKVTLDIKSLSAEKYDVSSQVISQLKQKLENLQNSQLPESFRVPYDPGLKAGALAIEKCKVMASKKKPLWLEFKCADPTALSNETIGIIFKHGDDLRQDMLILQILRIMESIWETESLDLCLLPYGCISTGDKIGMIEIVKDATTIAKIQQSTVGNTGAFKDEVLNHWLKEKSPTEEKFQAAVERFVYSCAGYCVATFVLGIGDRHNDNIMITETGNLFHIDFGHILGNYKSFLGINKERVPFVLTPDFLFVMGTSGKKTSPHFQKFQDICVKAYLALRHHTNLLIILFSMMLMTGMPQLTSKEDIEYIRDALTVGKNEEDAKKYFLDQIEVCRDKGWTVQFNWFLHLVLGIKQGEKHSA
T1 sequence (Q8WYR1 whole entry partner, species assumed): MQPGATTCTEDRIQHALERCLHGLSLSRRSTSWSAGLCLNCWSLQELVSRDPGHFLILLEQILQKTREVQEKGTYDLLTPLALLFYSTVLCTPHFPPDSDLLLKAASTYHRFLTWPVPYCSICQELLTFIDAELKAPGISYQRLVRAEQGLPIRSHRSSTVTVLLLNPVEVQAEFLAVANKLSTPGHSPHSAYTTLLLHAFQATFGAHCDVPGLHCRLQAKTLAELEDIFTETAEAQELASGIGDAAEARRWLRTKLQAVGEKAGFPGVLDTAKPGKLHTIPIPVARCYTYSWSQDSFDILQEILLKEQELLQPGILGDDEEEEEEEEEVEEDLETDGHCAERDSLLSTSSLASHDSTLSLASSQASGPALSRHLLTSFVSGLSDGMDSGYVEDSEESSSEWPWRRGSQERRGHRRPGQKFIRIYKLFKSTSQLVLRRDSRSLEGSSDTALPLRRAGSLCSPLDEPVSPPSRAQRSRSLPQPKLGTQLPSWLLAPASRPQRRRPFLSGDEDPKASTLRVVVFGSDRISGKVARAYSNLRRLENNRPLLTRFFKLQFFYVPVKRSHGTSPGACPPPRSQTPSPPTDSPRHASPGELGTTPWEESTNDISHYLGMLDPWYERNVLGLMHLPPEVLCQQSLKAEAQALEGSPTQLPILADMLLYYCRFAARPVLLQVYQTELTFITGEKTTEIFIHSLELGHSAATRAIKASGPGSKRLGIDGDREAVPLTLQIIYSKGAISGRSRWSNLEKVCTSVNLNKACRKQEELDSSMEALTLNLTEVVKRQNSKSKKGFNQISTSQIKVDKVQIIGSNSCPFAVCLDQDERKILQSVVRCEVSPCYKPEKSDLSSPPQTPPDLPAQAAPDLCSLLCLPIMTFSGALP

IC50 [nM]	SMILES
3	O=C1NC(=O)C(=Cc2ccc3c(c2)N(Cc2ccc(Cl)c(Cl)c2)C(=O)CO3)S1 [Example 246, 5-[4-(3,4-Dichloro-benzyl)-3-oxo-3,4-dihydro-2H-benzo[1,4]oxazin-6-ylmethylene]-thiazolidine-2,4-dione]
25	Cc1cc(CN2CCN(C)CC2)cc(CN2C(=O)COc3ccc(C=C4SC(=O)NC4=O)cc32)c1 [Example 251, 5-{4-[3-Methyl-5-(4-methyl-piperazin-1-ylmethyl)-benzyl]-3-oxo-3,4-dihydro-2H-1,4-benzoxazin-6-ylmethylene}-thiazolidine-2,4-dione]
102	O=C1NC(=S)SC1=Cc1ccc2c(c1)N(Cc1cc(C(F)(F)F)cc(C(F)(F)F)c1)C(=O)CO2 [Example 185, 4-(3,5-Bis-trifluoromethyl-benzyl)-6-(4-oxo-2-thioxo-thiazolidin-5-ylidenemethyl)-4H-1,4-benzoxazin-3-one]
257	CC(C)(C)c1cc(CN2C(=O)COc3ccc(C=C4SC(=O)NC4=O)cc32)cc(C(C)(C)C)n1 [Example 66, 5-[4-(2,6-Di-tert-butyl-pyridin-4-ylmethyl)-3-oxo-3,4-dihydro-2H-1,4-benzoxazin-6-ylmethylene]-thiazolidine-2,4-dione]
8	Cc1cc(C)cc(CN2C(=O)COc3c(F)cc(C=C4SC(=S)NC4=O)cc32)c1 [Example 69, 4-(3,5-Dimethyl-benzyl)-8-fluoro-6-(4-oxo-2-thioxo-thiazolidin-5-ylidenemethyl)-4H-1,4-benzoxazin-3-one]
4	O=C1NC(=S)SC1=Cc1ccc2c(c1)N(CCCOc1ccccc1)C(=O)CO2 [Example 161, 6-(4-Oxo-2-thioxo-thiazolidin-5-ylidenemethyl)-4-(3-phenoxy-propyl)-4H-1,4-benzoxazin-3-one]
10	CS(=O)(=O)c1ccc(CN2C(=O)COc3c(F)cc(/C=C4\SC(=S)NC4=O)cc32)cc1 [Example 289, 8-Fluoro-4-(4-methanesulfonyl-benzyl)-6-[4-oxo-2-thioxo-thiazolidin-(5Z)-ylidenemethyl]-4H-benzo[1,4]oxazin-3-one; Compound with Ethane-1,2-diamine]
24	Cc1cc(CN2C(=O)COc3ccc(C=C4SC(=S)NC4=O)cc32)cc(-c2ccsc2)c1 [Example 116, 4-(3-Methyl-5-thiophene-3-yl-benzyl)-6-(4-oxo-2-thioxo-thiazolidin-5-ylidenemethyl)-4H-benzo[1,4]oxazin-3-one]
23	O=C1NC(=S)SC1=Cc1ccc2c(c1)N(Cc1ccccc1)C(=O)CO2 [Example 4, 4-Benzyl-6-(4-oxo-2-thioxo-thiazolidin-5-ylidenemethyl)-4H-1,4-benzoxazin-3-one]
98	O=C1NC(=S)SC1=Cc1ccc2c(c1)N(Cc1cc(F)cc(C(F)(F)F)c1)C(=O)CO2 [Example 187, 4-(3-Fluoro-5-trifluoromethyl-benzyl)-6-(4-oxo-2-thioxo-thiazolidin-5-ylidenemethyl)-4H-1,4-benzoxazin-3-one]
16	CC(=O)c1cc(CN2C(=O)COc3ccc(C=C4SC(=S)NC4=O)cc32)cc(C(C)(C)C)c1 [Example 64, 4-(3-Acetyl-5-tert-butyl-benzyl)-6-(4-oxo-2-thioxo-thiazolidin-5-ylidenemethyl)-4H-1,4-benzoxazin-3-one]
9	CC(C)(C)c1cc(C#N)cc(CN2C(=O)COc3ccc(C=C4SC(=S)NC4=O)cc32)c1 [Example 55, 3-tert-Butyl-5-[3-oxo-6-(4-oxo-2-thioxo-thiazolidin-5-ylidenemethyl)-2,3-dihydro-1,4-benzoxazin-4-ylmethyl]-benzonitrile]
52	CCOC(=O)N1CCN(Cc2ccc(CN3C(=O)COc4ccc(C=C5SC(=S)NC5=O)cc43)cc2)CC1 [Example 241, 4-{4-[3-Oxo-6-(4-oxo-2-thioxo-thiazolidin-5-ylidenemethyl)-2,3-dihydro-benzo[1,4]oxazin-4-ylmethyl]-benzyl}-piperazine-1-carboxylic acid ethyl ester]
9	O=C1NC(=S)OC1=Cc1ccc2c(c1)N(Cc1ccc(Cl)c(Cl)c1)C(=O)CS2 [Example 199, 4-(3,4-Dichlorobenzyl)-6-(4-oxo-2-thioxo-oxazolidin-5-ylidenemethyl)-4H-benzo[1,4]thiazin-3-one]
319	C[C@@H]1Oc2ccc(C=C3SC(=S)NC3=O)cc2N(Cc2ccccc2)C1=O [Example 18, (S)-4-Benzyl-2-methyl-6-(4-oxo-2-thioxo-thiazolidin-5-ylidenemethyl)-4H-1,4-benzoxazin-3-one]
6	CC(C)(C)c1cc(CN2C(=O)COc3ccc(C=C4SC(=S)NC4=O)cc32)cc(C(C)(C)O)c1 [Example 237, 4-[3-tert-Butyl-5(1-hydroxy-1-methyl-ethyl)-benzyl]-6-(4-oxo-2-thioxo-thazolidin-5-ylmethyl)-4H-benzo[1,4]oxazin-3-one]
185	CC1CC(C)CN(CCCN2C(=O)COc3c(F)cc(C=C4SC(=S)NC4=O)cc32)C1 (stereo not drawn) [Example 244, 4-[3-(3,5-Dimethyl-piperidin-1-yl)-propyl]-8-fluoro-6-(4-oxo-2-thioxo-thiazolidin-5-ylidenemethyl)-4H-benzo[1,4]oxazin-3-one]

IC50 [nM]	SMILES
21	CC(C)S(=O)(=O)c1cccc(CN2C(=O)COc3ccc(C=C4SC(=O)NC4=O)cc32)c1 [Example 252, 5-{3-Oxo-4-[3-(propane-2-sulfonyl)-benzyl]-3,4-dihydro-2H-1,4-benzoxazin-6-ylmethylene}-thiazolidine-2,4-dione]
1030	C[C@@H]1Oc2ccc(C=C3SC(=S)NC3=O)cc2N(Cc2ccc3ccccc3c2)C1=O [Example 152, (S)-2-Methyl-4-naphthalen-2-ylmethyl-6-(4-oxo-2-thioxo-thiazolidin-5-ylidenemethyl)-4H-benzo[1,4]oxazin-3-one]
30	O=C1NC(=S)SC1=Cc1ccc2c(c1)N(Cc1ccc(OCc3ccccc3)cc1)C(=O)CO2 [Example 163, 4-(4-Benzyloxy-benzyl)-6-(4-oxo-2-thioxo-thiazolidin-5-ylidenemethyl)-4H-1,4-benzoxazin-3-one]
1080	O=C1NC(=S)SC1=Cc1ccc2c(c1)N(CC(=O)N1CCNCC1)C(=O)CO2 [Example 215, 4-(2-Oxo-2-piperazin-1-yl-ethyl)-6-(4-oxo-2-thioxo-thiazolidin-5-ylidenemethyl)-4H-1,4-benzoxazin-3-one]
555	Cc1cc(C)cc(CN2C(=O)COc3c(Cl)cc(C=C4SC(=O)NC4=O)cc32)c1 [Example 68, 5-[8-Chloro-4-(3,5-dimethyl-benzyl)-3-oxo-3,4-dihydro-2H-1,4-benzoxazin-6-ylmethylene]-thiazolidine-2,4-dione]
19	CC(C)(C)OC(=O)N1CCN(Cc2ccc(CN3C(=O)COc4ccc(C=C5SC(=S)NC5=O)cc43)cc2)CC1 [Example 74, 4-{4-[3-Oxo-6-(4-oxo-2-thioxo-thiazolidin-5-ylidenemethyl)-2,3-dihydro-1,4-benzoxazin-4-ylmethyl]-benzyl}-piperazine-1-carboxylic acid tert-butyl ester]
8	O=C1NC(=S)S/C1=C\c1ccc2c(c1)N(Cc1ccc(C(=O)N3CCOCC3)cc1)C(=O)CO2 [Example 281, 4-[4-(Morpholine-4-carbonyl)-benzyl]-6-[4-oxo-2-thioxo-thiazolidin-(5Z)-ylidenemethyl]-4H-benzo[1,4]oxazin-3-one]
7	COc1ccc(CCCN2C(=O)COc3ccc(C=C4SC(=O)NC4=O)cc32)cc1 [Example 123, 5-{4-[3-(4-Methoxy-phenyl)-propyl]-3-oxo-3,4-dihydro-2H-benzo[1,4]oxazin-6-ylmethylene}-thiazolidine-2,4-dione]
1910	O=C1COc2ncc(C=C3SC(=S)NC3=O)cc2N1 [Example 195, 7-(4-Oxo-2-thioxo-thiazolidin-5-ylidenemethyl)-1H-pyrido[2,3-b][1,4]oxazin-2-one]
18	CS(=O)(=O)c1cccc(CN2C(=O)COc3ccc(/C=C4\SC(=O)NC4=O)cc32)c1 [Example 265, 5-[1-[4-(3-Methanesulfonyl-benzyl)-3-oxo-3,4-dihydro-2H-benzo[1,4]oxazin-6-yl]-meth-(Z)-ylidene]-thiazolidine-2,4-dione]
67	Cc1cc(CN2C(=O)COc3ccc(C=C4SC(=S)NC4=O)cc32)cc(-c2cnccn2)c1 [Example 121, 4-(3-Methyl-5-pyrazin-2-yl-benzyl)-6-(4-oxo-2-thioxo-thiazolidin-5-ylidenemethyl)-4H-benzo[1,4]oxazin-3-one]
15	Cc1cc(CN2C(=O)COc3ccc(C=C4SC(=S)NC4=O)cc32)cc(-c2ccoc2)c1 [Example 115, 4-(3-Furan-3-yl-5-methyl-benzyl)-6-(4-oxo-2-thioxo-thiazolidin-5-ylidenemethyl)-4H-benzo[1,4]oxazin-3-one]
17	Cc1cc(CN2C(=O)COc3ccc(C=C4SC(=S)NC4=O)cc32)cc(C(C)(C)C)c1 [Example 211, 4-(3-tert-Butyl-5-methyl-benzyl)-6-(4-oxo-2-thioxo-thiazolidin-5-ylidenemethyl)-4H-1,4-benzoxazin-3-one]
21	CCCCN1CCN(Cc2ccc(CN3C(=O)COc4ccc(C=C5SC(=S)NC5=O)cc43)cc2)CC1 [Example 77, 4-[4-(4-Butyl-piperazin-1-ylmethyl)-benzyl]-6-(4-oxo-2-thioxo-thiazolidin-5-ylidenemethyl)-4H-1,4-benzoxazin-3-one]
49	O=C1NC(=S)SC1=Cc1ccc2c(c1)N(Cc1ccccn1)C(=O)CO2 [Example 147, 6-(4-Oxo-2-thioxo-thiazolidin-5-ylidenemethyl)-4-pyridin-2-ylmethyl-4H-benzo[1,4]oxazin-3-one]
8	O=C1NC(=S)SC1=Cc1ccc2c(c1)N(Cc1ccc3ncccc3c1)C(=O)CO2 [Example 337, 6-(4-Oxo-2-thioxo-thiazolidin-5-ylidenemethyl)-4-quinolin-6-ylmethyl-4H-1,4-benzoxazin-3-one]
